Literature values, collected in patent US11555049B2, “Method for separation and purification of n-acetylglucosamine” (JIANGSU HARVERS BIOTECH CO., LTD., priority 2020, dated 2023).
In brackets after ≈: the same amount, converted by molar mass.

SMILES: CC(=O)N[C@H]1C(O)O[C@H](CO)[C@@H](O)[C@@H]1O (some centres unmarked) [GlcNAc, N-acetyl-glucosamine]
- solubility in water (0° C. water): 140 mg/mL (≈ 633 mM)
- solubility in organic solvents (organic solvents such as ethanol and propanol): insoluble
